Assay results: ChEMBL document CHEMBL5096151, “Phytocannabinoid Pharmacology: Medicinal Properties of Cannabis sativa Constituents Aside from the "Big Two"” (J Nat Prod, 2021)

Experiments:
[1] = molecular target: T1, Transient receptor potential cation channel subfamily A member 1 (Homo sapiens, UniProt O75762); assay: Agonist activity at TRPA1 (unknown origin) channel desensitization in presence of isothiocyanate
[2] = molecular target: T2, Transient receptor potential cation channel subfamily V member 1 (Homo sapiens, UniProt Q8NER1); assay: Agonist activity at ionomycin-stimulated TRPV1 (unknown origin) activation assessed as efficacy relative to control
[3] = molecular target: T3, Transient receptor potential cation channel subfamily V member 3 (Homo sapiens, UniProt Q8NET8); assay: Agonist activity at ionomycin-stimulated TRPV3 (unknown origin) activation
T3 sequence (Q8NET8 whole entry): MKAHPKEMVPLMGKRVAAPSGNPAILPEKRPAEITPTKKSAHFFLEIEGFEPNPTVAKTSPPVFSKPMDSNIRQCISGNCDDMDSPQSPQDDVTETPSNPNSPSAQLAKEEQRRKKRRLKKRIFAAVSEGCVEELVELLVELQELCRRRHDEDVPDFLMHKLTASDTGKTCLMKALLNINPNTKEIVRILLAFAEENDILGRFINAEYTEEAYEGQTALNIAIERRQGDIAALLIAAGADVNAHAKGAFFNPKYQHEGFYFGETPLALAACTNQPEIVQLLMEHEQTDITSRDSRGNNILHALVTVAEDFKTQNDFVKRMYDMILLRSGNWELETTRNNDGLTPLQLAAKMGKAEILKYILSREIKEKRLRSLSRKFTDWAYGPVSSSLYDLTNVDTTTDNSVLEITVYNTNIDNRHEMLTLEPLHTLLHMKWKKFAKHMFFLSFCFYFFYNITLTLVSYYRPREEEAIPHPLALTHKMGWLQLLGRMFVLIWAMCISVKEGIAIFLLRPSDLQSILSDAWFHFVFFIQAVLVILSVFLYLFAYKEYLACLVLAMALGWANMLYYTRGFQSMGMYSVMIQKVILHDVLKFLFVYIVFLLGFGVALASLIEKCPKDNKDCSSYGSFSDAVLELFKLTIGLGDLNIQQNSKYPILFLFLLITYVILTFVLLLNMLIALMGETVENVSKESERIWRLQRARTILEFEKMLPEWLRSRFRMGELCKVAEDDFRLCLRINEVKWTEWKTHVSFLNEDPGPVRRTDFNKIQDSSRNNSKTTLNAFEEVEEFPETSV

[4] = molecular target: T1, Transient receptor potential cation channel subfamily A member 1; assay: Agonist activity at TRPA1 (unknown origin) channel desensitization in presence of icilin
[5] = molecular target: T1, Transient receptor potential cation channel subfamily A member 1; assay: Agonist activity at TRPA1 (unknown origin) activation assessed as efficacy relative to control; settings: filed as agonist
[6] = molecular target: T1, Transient receptor potential cation channel subfamily A member 1; assay: Agonist activity at TRPA1 (unknown origin) activation
[7] = molecular target: T4, Transient receptor potential cation channel subfamily V member 2 (Homo sapiens, UniProt Q9Y5S1); assay: Agonist activity at ionomycin-stimulated TRPV2 (unknown origin) activation
T4 sequence (Q9Y5S1 whole entry): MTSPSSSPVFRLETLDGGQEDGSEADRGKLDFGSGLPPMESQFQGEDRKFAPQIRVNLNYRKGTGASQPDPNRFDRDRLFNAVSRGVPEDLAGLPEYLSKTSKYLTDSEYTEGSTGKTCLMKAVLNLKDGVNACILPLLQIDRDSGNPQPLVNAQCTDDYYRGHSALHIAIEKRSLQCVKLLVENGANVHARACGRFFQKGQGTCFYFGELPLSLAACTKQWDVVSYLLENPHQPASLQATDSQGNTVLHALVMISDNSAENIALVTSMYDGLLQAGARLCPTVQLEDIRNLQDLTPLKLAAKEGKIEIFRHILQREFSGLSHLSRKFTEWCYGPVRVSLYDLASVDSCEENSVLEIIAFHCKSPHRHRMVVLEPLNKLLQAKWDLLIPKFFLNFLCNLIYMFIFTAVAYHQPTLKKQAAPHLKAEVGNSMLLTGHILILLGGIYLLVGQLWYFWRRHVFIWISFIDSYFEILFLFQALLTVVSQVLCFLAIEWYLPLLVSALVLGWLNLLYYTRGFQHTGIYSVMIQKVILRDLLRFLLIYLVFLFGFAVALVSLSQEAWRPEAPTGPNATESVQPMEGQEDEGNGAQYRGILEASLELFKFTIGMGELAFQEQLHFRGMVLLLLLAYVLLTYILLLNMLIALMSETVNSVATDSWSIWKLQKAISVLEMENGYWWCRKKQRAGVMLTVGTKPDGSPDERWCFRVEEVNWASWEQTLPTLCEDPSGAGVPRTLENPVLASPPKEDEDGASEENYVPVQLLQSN

[8] = molecular target: T5, Transient receptor potential cation channel subfamily V member 4 (Homo sapiens, UniProt Q9HBA0); assay: Agonist activity at ionomycin-stimulated TRPV4 (unknown origin) activation assessed as efficacy relative to control
[9] = molecular target: T3, Transient receptor potential cation channel subfamily V member 3; assay: Agonist activity at ionomycin-stimulated TRPV3 (unknown origin) channel desensitization in presence of carvacrol
[10] = molecular target: T4, Transient receptor potential cation channel subfamily V member 2; assay: Agonist activity at ionomycin-stimulated TRPV2 (unknown origin) channel desensitization in presence of lysophosphatidylcholine
[11] = molecular target: T5, Transient receptor potential cation channel subfamily V member 4; assay: Agonist activity at ionomycin-stimulated TRPV4 (unknown origin) activation
[12] = molecular target: T5, Transient receptor potential cation channel subfamily V member 4; assay: Agonist activity at ionomycin-stimulated TRPV4 (unknown origin) channel desensitization in presence of 4alphaPDD
[13] = molecular target: T6, Transient receptor potential cation channel subfamily V member 3 (Homo sapiens) (UniProt Q8NET8); assay: Agonist activity at ionomycin-stimulated TRPV3 (unknown origin) activation assessed as efficacy relative to control
T6 sequence (whole entry): T3 sequence (Q8NET8 whole entry)

[14] = molecular target: T2, Transient receptor potential cation channel subfamily V member 1; assay: Agonist activity at ionomycin-stimulated TRPV1 (unknown origin) channel desensitization in presence of capsaicin
[15] = molecular target: T7, Transient receptor potential cation channel subfamily V member 2 (Homo sapiens) (UniProt Q9Y5S1); assay: Agonist activity at ionomycin-stimulated TRPV2 (unknown origin) activation assessed as efficacy relative to control
T7 sequence (whole entry): T4 sequence (Q9Y5S1 whole entry)

[16] = molecular target: T2, Transient receptor potential cation channel subfamily V member 1; assay: Agonist activity at ionomycin-stimulated TRPV1 (unknown origin) activation
[17] = molecular target: Transient receptor potential cation channel subfamily M member 8 (Homo sapiens, UniProt Q7Z2W7); assay: Antagonist activity at TRPM8 (unknown origin) ion channel
Transient receptor potential cation channel subfamily M member 8, sequence (Q7Z2W7 whole entry): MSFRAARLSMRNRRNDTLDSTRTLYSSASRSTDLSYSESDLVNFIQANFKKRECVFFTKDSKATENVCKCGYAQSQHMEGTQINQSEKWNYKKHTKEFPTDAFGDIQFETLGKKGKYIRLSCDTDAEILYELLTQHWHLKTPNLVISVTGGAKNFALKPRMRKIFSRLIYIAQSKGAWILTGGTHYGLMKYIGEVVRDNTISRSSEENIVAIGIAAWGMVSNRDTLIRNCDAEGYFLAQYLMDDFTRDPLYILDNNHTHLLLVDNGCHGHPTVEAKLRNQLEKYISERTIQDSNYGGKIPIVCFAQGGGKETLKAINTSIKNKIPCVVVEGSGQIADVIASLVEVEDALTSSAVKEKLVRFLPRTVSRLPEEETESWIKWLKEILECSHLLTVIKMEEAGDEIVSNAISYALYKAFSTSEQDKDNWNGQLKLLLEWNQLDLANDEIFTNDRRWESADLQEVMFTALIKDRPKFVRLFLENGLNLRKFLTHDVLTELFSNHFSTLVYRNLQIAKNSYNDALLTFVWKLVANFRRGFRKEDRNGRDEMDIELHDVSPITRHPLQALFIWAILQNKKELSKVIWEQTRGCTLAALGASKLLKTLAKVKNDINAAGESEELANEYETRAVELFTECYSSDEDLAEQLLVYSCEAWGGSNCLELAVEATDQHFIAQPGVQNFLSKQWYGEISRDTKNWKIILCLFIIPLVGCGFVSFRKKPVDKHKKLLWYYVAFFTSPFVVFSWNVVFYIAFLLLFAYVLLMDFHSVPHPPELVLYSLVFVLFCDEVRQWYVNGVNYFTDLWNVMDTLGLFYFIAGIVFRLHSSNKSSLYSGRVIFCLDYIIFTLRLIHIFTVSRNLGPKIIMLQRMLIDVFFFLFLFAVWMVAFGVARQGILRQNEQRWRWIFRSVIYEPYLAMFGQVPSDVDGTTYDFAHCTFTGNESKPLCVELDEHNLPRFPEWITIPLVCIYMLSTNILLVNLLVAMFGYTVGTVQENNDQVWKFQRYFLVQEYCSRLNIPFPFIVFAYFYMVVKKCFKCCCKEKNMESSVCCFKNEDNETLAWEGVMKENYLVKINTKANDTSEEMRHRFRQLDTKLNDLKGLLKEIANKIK

T5 sequence (Q9HBA0 whole entry): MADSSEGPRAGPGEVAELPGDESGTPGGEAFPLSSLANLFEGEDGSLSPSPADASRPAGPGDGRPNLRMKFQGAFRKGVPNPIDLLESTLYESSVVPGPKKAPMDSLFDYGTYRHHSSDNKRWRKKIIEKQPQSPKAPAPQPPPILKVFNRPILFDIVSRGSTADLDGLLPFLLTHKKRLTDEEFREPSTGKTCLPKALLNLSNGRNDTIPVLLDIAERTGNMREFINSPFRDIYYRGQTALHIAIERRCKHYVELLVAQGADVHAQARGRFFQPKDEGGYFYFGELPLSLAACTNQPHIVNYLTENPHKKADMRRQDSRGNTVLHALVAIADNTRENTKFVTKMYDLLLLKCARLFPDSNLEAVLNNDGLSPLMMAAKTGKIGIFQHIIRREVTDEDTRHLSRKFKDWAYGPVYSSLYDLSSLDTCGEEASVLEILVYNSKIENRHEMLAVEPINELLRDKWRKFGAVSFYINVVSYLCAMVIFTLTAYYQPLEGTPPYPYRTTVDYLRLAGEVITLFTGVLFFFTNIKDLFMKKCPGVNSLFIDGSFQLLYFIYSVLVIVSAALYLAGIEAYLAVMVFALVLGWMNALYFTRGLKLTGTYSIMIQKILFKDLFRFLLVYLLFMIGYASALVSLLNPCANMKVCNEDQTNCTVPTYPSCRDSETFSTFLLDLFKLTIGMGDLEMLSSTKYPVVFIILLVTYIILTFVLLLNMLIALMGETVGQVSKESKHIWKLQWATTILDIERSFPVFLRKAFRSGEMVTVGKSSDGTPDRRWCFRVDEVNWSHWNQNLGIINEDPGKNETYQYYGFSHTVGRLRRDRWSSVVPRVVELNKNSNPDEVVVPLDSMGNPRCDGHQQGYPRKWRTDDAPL
T2 sequence (Q8NER1 whole entry): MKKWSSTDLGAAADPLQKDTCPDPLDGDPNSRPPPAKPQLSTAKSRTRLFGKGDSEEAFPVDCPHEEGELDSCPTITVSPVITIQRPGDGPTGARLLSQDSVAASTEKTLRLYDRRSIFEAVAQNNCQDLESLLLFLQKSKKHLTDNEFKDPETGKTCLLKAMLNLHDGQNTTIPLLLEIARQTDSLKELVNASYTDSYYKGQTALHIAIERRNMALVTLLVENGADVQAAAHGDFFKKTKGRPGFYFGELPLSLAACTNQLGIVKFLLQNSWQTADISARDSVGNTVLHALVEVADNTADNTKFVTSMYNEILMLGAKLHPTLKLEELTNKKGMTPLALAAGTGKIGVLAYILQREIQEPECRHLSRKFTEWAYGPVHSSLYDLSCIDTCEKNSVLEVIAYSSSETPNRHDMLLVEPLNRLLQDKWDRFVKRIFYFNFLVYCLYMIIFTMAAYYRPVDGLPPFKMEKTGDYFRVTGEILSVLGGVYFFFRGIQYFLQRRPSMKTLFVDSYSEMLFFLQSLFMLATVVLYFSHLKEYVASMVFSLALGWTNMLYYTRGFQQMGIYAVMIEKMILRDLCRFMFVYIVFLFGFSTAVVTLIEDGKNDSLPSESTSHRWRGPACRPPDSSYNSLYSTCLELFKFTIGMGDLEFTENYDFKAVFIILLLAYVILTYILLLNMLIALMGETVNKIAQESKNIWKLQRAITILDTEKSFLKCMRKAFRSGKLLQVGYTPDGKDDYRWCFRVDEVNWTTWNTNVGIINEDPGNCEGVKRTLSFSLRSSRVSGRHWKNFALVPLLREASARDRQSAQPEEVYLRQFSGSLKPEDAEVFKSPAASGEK
T1 sequence (O75762 whole entry): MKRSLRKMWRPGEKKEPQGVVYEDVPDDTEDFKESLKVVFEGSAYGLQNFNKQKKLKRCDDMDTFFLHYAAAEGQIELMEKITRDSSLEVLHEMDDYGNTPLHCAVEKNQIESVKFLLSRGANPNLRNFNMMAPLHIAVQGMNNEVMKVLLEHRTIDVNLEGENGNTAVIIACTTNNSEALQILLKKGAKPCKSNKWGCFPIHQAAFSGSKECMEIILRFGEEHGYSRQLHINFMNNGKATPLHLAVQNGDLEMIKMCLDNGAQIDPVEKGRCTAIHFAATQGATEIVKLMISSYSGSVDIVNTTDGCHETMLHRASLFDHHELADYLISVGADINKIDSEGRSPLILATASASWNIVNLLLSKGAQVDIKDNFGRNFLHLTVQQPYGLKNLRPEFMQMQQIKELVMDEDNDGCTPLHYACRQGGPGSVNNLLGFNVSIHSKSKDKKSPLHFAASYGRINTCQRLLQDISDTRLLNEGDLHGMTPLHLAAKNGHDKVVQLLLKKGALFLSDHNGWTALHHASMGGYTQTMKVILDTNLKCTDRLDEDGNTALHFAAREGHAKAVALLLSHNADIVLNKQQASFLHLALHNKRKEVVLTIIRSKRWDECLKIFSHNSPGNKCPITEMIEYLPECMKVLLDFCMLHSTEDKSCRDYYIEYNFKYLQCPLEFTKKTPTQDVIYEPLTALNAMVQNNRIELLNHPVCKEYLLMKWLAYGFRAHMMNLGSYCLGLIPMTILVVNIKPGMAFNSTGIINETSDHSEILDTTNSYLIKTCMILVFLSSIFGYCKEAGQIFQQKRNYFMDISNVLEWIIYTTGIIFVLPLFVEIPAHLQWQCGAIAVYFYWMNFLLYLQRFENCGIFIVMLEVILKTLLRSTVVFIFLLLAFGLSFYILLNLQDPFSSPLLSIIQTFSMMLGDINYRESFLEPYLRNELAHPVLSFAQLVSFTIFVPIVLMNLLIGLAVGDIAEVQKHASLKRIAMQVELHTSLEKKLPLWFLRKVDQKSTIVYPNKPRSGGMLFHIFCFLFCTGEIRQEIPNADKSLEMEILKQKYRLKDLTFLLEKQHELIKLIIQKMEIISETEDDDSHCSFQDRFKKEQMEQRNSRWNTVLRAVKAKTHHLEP

Compound | IC50 [1] | Efficacy ([2]; filed as agonist) | EC50 [3] | IC50 [4] | Efficacy [5] | EC50 [6] | EC50 [7] | Efficacy [8] | IC50 [9] | IC50 [10] | EC50 [11] | IC50 [12] | Efficacy ([13]; filed as agonist) | IC50 [14] | Efficacy ([15]; filed as agonist) | Efficacy [2] | EC50 [16] | IC50 [17] | Efficacy [13] | Efficacy [15]
CCCc1cc(O)c2c(c1)OC(C)(C)c1ccc(C)cc1-2 | 0.17 µM | 50% | 3.5 µM | 0.5 µM | 123% | 0.2 µM | 3.1 µM | 37% | 1.6 µM | 2.2 µM | 7.3 µM | 4 µM | 78% | 11.9 µM | 79% | – | – | – | – | –
CCCCCc1cc(O)c2c(c1)OC(C)(CCC=C(C)C)C=C2 (stereo not given) [CANNABICHROMENE] | 0.37 µM | – | 1.9 µM | – | 119% | 0.09 µM | – | 23% | 201 µM | 6.5 µM | 0.6 µM | 9.9 µM | – | > 50 µM | – | < 10% | 24.2 µM | 40.7 µM | 20% | < 10%
